Measured values from patent US20230066946A1, “1,5-DIPHENYLPYRAZOLYL-3-OXYALKYL ACIDS AND 1-PHENYL-5-THIENYLPYRAZOLYL-3-OXYALKYL ACIDS AND THE USE THEREOF FOR CONTROL OF UNWANTED PLANT GROWTH” (Bayer Aktiengesellschaft, priority 2019, published 2023).

Columns and labels:
[1] = tested on: PHBPU; assay: Post-emergence herbicidal action against PHBPU; type: in vivo, Pharbitis purpurea; conditions: 320 g/ha, visual rating about 3 weeks after treatment
Outline: (§1)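 Visual % damage (100% = dead, 0% = like untreated control) was scored about 3 weeks after foliar spraying of one-leaf-stage plants grown in sandy loam. Doses were 1280 or 320 g/ha, applied as aqueous WP/EC preparations with 0.5% additive in 600 litres per hectare water.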

[2] = tested on: PHBPU; assay: Pre-emergence herbicidal action against PHBPU; type: in vivo, Pharbitis purpurea; conditions: 1280 g/ha, scored visually after about 3 weeks vs untreated controls
Excerpt: (§2) Seeds of mono- and dicotyledonous weed plants are placed in plastic pots in sandy loam soil (doubly sown with one species each of mono- or dicotyledonous weed plants per pot) and covered with soil. The compounds of the invention, formulated in the form of wettable powders (WP) or as emulsion concentrates (EC), are then applied onto the surface of the covering soil as aqueous suspension or emulsion with addition of 0.5% additive at a water application rate equivalent to 600 litres per hectare. After the treatment, the pots are placed in a greenhouse and kept under good growth conditions for the trial plants. After about 3 weeks, the effect of the preparations is scored visually in comparison with untreated controls as percentages. For example, 100% activity=the plants have died, 0% activity=like control plants. [table] Tables 4.1-4.15 below show the effects of selected compounds of the general formula (I) according to Tables 1 to 3 on various harmful plants at an application rate corresponding to 1280 or 320 g/ha, which have been obtained by the aforementioned experimental method.

[3] = tested on: AMARE; assay: Pre-emergence herbicidal action against AMARE; type: in vivo, Amaranthus retroflexus; conditions: scored visually after about 3 weeks vs untreated controls; for Pre-emergence action at 320 g/ha against AMARE in %: 100% = plants have died, 0% = like control plants; for Pre-emergence action against AMARE in %: 1280 g/ha
Outline: (§3)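 Visual percent activity (100% = plants dead, 0% = like control) scored about 3 weeks after pre-emergence treatment in greenhouse. Compounds as WP or EC, applied to covering soil surface with 0.5% additive, 600 L/ha water, at 1280 or 320 g/ha.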

[4] = tested on: STEME; assay: Pre-emergence herbicidal action against STEME; type: in vivo, Stellaria media; conditions: scored visually after about 3 weeks vs untreated controls
Outline: as §3

[5] = tested on: MATIN; assay: Pre-emergence herbicidal action against MATIN; type: in vivo, Matricaria inodora; conditions: 1280 g/ha, scored visually after about 3 weeks vs untreated controls
Outline: as §3

[6] = tested on: harmful plants; assay: Post-emergence herbicidal action, summary of Tables 5.1-5.16; type: in vivo; conditions: result in words
Description: Seeds of mono- and dicotyledonous weed plants are placed in plastic pots in sandy loam soil (twin sowing with one species each of mono- or dicotyledonous weed plants per pot), covered with soil and cultivated in a greenhouse under controlled growth conditions. 2 to 3 weeks after sowing, the test plants are treated at the one-leaf stage. The compounds of the invention, formulated in the form of wettable powders (WP) or as emulsion concentrates (EC), are applied to the green parts of the plants as aqueous suspension or emulsion with addition of 0.5% additive at a water application rate equivalent to 600 litres per hectare. After the test plants have been kept in the greenhouse under optimum growth conditions for about 3 weeks, the activity of the preparations is rated visually in comparison to untreated controls. For example, 100% activity=the plants have died, 0% activity=like control plants. Tables 5.1-5.16 below show the effects of selected compounds of the general formula (I) according to Tables 1 to 3 on various harmful plants at an application rate corresponding to 1280 or 320 g/ha, which have been obtained by the aforementioned experimental method. As the results from Tables 5.1-5.16 show, compounds of the invention have good herbicidal post-emergence efficacy against a broad spectrum of weed grasses and weeds. […] For example, compounds Nos. I-002, I-006, I-022, I-056 and I-072 applied by the post-emergence method have very good herbicidal action (80% to 100% herbicidal action) against harmful plants such as Alopecurus myosuroides, Amaranthus retroflexus, Matricaria inodora, Setaria viridis, Pharbitis purpurea and Stellaria media at an application rate of 1.28 kg of active substance or less per hectare.

[7] = tested on: harmful plants; assay: Pre-emergence herbicidal action, summary of Tables 4.1-4.15; type: in vivo; conditions: result in words
Outline: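 Percent herbicidal action (100% = plants dead, 0% = like controls) was assessed visually about 3 weeks after treatment. Application rates of 1280 or 320 g/ha were applied to the covering soil of freshly sown sandy-loam pots, in 600 l/ha water with 0.5% additive, before emergence.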

[8] = tested on: ECHCG; assay: Post-emergence herbicidal action against ECHCG; type: in vivo, Echinochloa crus-galli; conditions: 1280 g/ha, post-emergence at one-leaf stage, rated visually after about 3 weeks vs untreated controls
Outline: as §1

[9] = tested on: MATIN; assay: Post-emergence herbicidal action against MATIN; type: in vivo, Matricaria inodora; conditions: visual rating about 3 weeks after treatment
Outline: as §1

[10] = tested on: AMARE; assay: Post-emergence herbicidal action against AMARE; type: in vivo, Amaranthus retroflexus; conditions: 1280 g/ha, visual rating about 3 weeks after treatment
Outline: as §1

[11] = tested on: STEME; assay: Post-emergence herbicidal action against STEME; type: in vivo, Stellaria media; conditions: visual rating about 3 weeks after treatment
Outline: as §1

[12] = tested on: CYPES; assay: Pre-emergence herbicidal action against CYPES; type: in vivo, Cyperus esculentus; conditions: scored visually after about 3 weeks vs untreated controls, 100% = plants have died, 0% = like control plants
Excerpt: as §2

[13] = tested on: VERPE; assay: Pre-emergence herbicidal action against VERPE; type: in vivo, Veronica persica; conditions: 320 g/ha, scored visually after about 3 weeks vs untreated controls
Outline: as §3

[14] = tested on: POLCO; assay: Pre-emergence herbicidal action against POLCO; type: in vivo, Polygonum convolvulus; conditions: 320 g/ha, scored visually after about 3 weeks vs untreated controls
Outline: as §3

[15] = tested on: ALOMY; assay: Post-emergence herbicidal action against ALOMY; type: in vivo, Alopecurus myosuroides; conditions: 1280 g/ha, post-emergence at one-leaf stage, rated visually after about 3 weeks vs untreated controls
Outline: as §1

[16] = tested on: VIOTR; assay: Pre-emergence herbicidal action against VIOTR; type: in vivo, Viola tricolor; conditions: 1280 g/ha, scored visually after about 3 weeks vs untreated controls
Outline: as §3

[17] = tested on: SETVI; assay: Pre-emergence herbicidal action against SETVI; type: in vivo, Setaria viridis; conditions: 1280 g/ha, scored visually after about 3 weeks vs untreated controls
Outline: as §3

[18] = tested on: ECHCG; assay: Pre-emergence herbicidal action against ECHCG; type: in vivo, Echinochloa crus-galli; conditions: scored visually after about 3 weeks vs untreated controls, 100% = plants have died, 0% = like control plants
Outline: as §3

[19] = tested on: ALOMY; assay: Pre-emergence herbicidal action against ALOMY; type: in vivo, Alopecurus myosuroides; conditions: scored visually after about 3 weeks vs untreated controls, 100% = plants have died, 0% = like control plants
Excerpt: as §2

[20] = tested on: POLCO; assay: Post-emergence herbicidal action against POLCO; type: in vivo, Polygonum convolvulus; conditions: 320 g/ha, visual rating about 3 weeks after treatment
Outline: as §1

[21] = tested on: HORMU; assay: Post-emergence herbicidal action against HORMU; type: in vivo, Hordeum murinum; conditions: 320 g/ha, visual rating about 3 weeks after treatment
Description: [table] Seeds of mono- and dicotyledonous weed plants are placed in plastic pots in sandy loam soil (twin sowing with one species each of mono- or dicotyledonous weed plants per pot), covered with soil and cultivated in a greenhouse under controlled growth conditions. 2 to 3 weeks after sowing, the test plants are treated at the one-leaf stage. The compounds of the invention, formulated in the form of wettable powders (WP) or as emulsion concentrates (EC), are applied to the green parts of the plants as aqueous suspension or emulsion with addition of 0.5% additive at a water application rate equivalent to 600 litres per hectare. After the test plants have been kept in the greenhouse under optimum growth conditions for about 3 weeks, the activity of the preparations is rated visually in comparison to untreated controls. For example, 100% activity=the plants have died, 0% activity=like control plants. Tables 5.1-5.16 below show the effects of selected compounds of the general formula (I) according to Tables 1 to 3 on various harmful plants at an application rate corresponding to 1280 or 320 g/ha, which have been obtained by the aforementioned experimental method.

[22] = tested on: HORMU; assay: Pre-emergence herbicidal action against HORMU; type: in vivo, Hordeum murinum; conditions: 320 g/ha, scored visually after about 3 weeks vs untreated controls
Excerpt: as §2

[23] = tested on: VIOTR; assay: Post-emergence herbicidal action against VIOTR; type: in vivo, Viola tricolor; conditions: 320 g/ha, visual rating about 3 weeks after treatment
Outline: as §1

| Structure (SMILES) | Post-emergence action against PHBPU in % [1] [%] | Pre-emergence action against PHBPU in % [2] [%] | Pre-emergence action at 320 g/ha against AMARE in % [3] [%] | Pre-emergence action against AMARE in % [3] [%] | Pre-emergence action against STEME in % ([4]; 1280 g/ha) [%] | Pre-emergence action against MATIN in % [5] [%] | herbicidal efficacy against harmful plants in the case of pre-emergence treatment [7] | Post-emergence action against ECHCG in % [8] [%] | Post-emergence action against MATIN in % ([9]; 320 g/ha) [%] | Post-emergence action against MATIN in % ([9]; 1280 g/ha) [%] | Post-emergence action against AMARE in % [10] [%] | Post-emergence action against STEME in % ([11]; 320 g/ha) [%] | Post-emergence action against STEME in % ([11]; 1280 g/ha) [%] | Pre-emergence action at 1280 g/ha against CYPES in % [12] [%] | Pre-emergence action against STEME in % ([4]; 320 g/ha) [%] | Pre-emergence action against POLCO in % [14] [%] | further results |
| --- | --- | --- | --- | --- | --- | --- | --- | --- | --- | --- | --- | --- | --- | --- | --- | --- | --- |
| COC(=O)COc1nn(-c2cccc(F)c2)c(-c2cccc(F)c2)c1Cl [I-003] | 80 | 80 | 100 | 100 | 100 | 100 | good herbicidal efficacy | 80 | 80 | 80 | 80 | 80 | 80 | 100 |  |  | herbicidal efficacy against harmful plants when applied post-emergence [6]: very good herbicidal efficacy; Pre-emergence action against VERPE in % [13]: 100% |
| CCOC(=O)COc1nn(-c2ccccc2)c(-c2ccccc2)c1Br [I-070] | 90 | 90 | 100 | 100 | 90 | 90 | good herbicidal efficacy | 80 |  | 80 | 80 |  | 90 | 80 | 80 | 80 | Post-emergence action against ALOMY in % [15]: 80%; Pre-emergence action against VIOTR in % [16]: 90%; Pre-emergence action against SETVI in % [17]: 90%; Pre-emergence action at 1280 g/ha against ECHCG in % [18]: 90%; Pre-emergence action at 1280 g/ha against ALOMY in % [19]: 90% |
| COC(=O)C(C)Oc1nn(-c2ccccc2)c(-c2ccc(F)cc2)c1C#N (stereo not drawn) [I-064] | 80 |  | 100 |  |  |  |  |  | 80 |  |  | 90 |  |  | 90 | 100 | Post-emergence action against POLCO in % [20]: 80%; Post-emergence action against HORMU in % [21]: 90%; Pre-emergence action against HORMU in % [22]: 90%; Post-emergence action against VIOTR in % [23]: 100% |
